Experimental data from patent US8114843B2, “Photoreactive regulator of protein function and methods of use thereof” (The Regents of the University of California, priority 2005, dated 2012).

Experiments:
Test in all cases: PAL photoswitching, whole-cell patch clamp in HEK cells
Assay type in all cases: cell-based
BKα channels = molecular target: T1, BKα channels (Homo sapiens, UniProt Q12791); settings: n=6
T1 construct: expressed in transfected cells; host or cells: HEK cells
Protocol: (§1) Cell culture and transfection. HEK293 cells were grown in DMEM containing 5% fetal bovine serum, at 37° C., 7% CO2. For electrophysiology, cells were plated at 12×10^5 cells/cm^2 on poly-L-lysine coated coverslips and transfected using the calcium phosphate method. Recordings were performed 24-36 hours after transfection.
(§2) PAL attachment. HEK293 and hippocampal cells were rinsed in extracellular solution containing in mM: 138 NaCl, 1.5 KCl, 1.2 MgCl2, 2.5 CaCl2, 5 HEPES, 10 glucose and incubated at 37° C. in the dark with 200-250 μM PAL for 15 minutes. For slices, AAQ was diluted to 200 μM in aCSF and treatment was performed in the dark at room temperature for 10 minutes.
(§3) Electrophysiological recording. Recordings from HEK293 and hippocampal neurons were made in the whole-cell patch clamp configuration using a PC-501A amplifier (Warner Instruments). Pulse protocols and measurements were carried out with pCLAMP and a Digidata 1322 interface (Axon Instruments). For voltage-clamp experiment, cells were held at −70 mV. Data was recorded at 20 kHz and filtered at 2 kHz. Recording pipettes with 2.5-4 MΩ resistance were filled with intracellular solution containing in mM: 10 NaCl, 135 K-gluconate, 10 HEPES, 2 MgCl2, 2 MgATP, 1 EGTA, pH 7.4.
(§4) Illumination was provided using a xenon lamp (Sutter Instruments) with narrow band pass filters (380 BP10 for UV and 500 BP5 for visible light respectively). Excitation filters were changed using a lambda 10-2 filter changer (Sutter Instruments) controlled via pCLAMP software.
(§5) Percent photoswitching was defined as the difference between current in UV and visible light divided by current in UV. All data shown in bar graphs are averages±standard error of the mean.

Kv1.2 = molecular target: T2, Kv1.2 (Homo sapiens, UniProt P16389)
T2 construct: expressed in transfected cells; host or cells: HEK cells
Protocol: as §1, §2, §3, §4, §5

Kv2.1 = molecular target: T3, Kv2.1 (Homo sapiens, UniProt Q14721)
T3 construct: expressed in transfected cells; host or cells: HEK cells
T3 sequence (Q14721 1-858): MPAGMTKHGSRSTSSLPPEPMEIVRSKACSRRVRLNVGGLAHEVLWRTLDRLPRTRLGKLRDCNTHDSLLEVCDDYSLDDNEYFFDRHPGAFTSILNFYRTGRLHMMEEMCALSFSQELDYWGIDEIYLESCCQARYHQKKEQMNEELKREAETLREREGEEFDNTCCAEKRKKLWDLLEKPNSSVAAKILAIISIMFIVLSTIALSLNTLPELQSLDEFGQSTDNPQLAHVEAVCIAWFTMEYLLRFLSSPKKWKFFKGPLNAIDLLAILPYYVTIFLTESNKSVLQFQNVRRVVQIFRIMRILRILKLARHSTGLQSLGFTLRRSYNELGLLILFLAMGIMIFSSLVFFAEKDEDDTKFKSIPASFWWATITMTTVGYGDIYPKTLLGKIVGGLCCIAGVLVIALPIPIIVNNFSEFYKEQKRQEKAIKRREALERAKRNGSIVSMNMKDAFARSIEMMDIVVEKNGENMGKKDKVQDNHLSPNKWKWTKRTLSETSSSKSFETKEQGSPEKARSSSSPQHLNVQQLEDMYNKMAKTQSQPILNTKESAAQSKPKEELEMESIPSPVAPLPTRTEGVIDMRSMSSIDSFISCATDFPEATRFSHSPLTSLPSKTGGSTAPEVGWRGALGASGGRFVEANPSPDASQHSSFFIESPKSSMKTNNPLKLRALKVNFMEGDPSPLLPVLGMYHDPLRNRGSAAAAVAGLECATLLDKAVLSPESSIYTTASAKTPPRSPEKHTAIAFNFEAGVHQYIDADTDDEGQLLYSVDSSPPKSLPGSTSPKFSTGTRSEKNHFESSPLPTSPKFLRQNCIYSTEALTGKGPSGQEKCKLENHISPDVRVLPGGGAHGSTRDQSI
Protocol: as §1, §2, §3, §4, §5

Kv3.1 = molecular target: T4, Kv3.1 (Homo sapiens, UniProt P48547)
T4 construct: expressed in transfected cells; host or cells: HEK cells
T4 sequence (P48547 1-511): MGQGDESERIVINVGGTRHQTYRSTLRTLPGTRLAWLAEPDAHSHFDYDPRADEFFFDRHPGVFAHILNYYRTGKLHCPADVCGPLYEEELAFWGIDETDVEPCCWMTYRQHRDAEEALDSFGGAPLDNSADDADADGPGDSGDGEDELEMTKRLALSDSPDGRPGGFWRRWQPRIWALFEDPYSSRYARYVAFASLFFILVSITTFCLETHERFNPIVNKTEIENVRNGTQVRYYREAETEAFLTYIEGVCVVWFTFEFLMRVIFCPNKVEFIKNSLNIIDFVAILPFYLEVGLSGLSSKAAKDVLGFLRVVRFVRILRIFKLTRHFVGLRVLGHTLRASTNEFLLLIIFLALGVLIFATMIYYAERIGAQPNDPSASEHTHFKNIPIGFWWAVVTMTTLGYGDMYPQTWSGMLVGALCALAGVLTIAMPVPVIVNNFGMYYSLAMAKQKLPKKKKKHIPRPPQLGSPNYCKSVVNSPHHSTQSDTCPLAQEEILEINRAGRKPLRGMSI
Protocol: as §1, §2, §3, §4, §5

Kv3.3 = molecular target: T5, Kv3.3 (Homo sapiens, UniProt Q14003)
T5 construct: expressed in transfected cells; host or cells: HEK cells
T5 sequence (Q14003 1-757): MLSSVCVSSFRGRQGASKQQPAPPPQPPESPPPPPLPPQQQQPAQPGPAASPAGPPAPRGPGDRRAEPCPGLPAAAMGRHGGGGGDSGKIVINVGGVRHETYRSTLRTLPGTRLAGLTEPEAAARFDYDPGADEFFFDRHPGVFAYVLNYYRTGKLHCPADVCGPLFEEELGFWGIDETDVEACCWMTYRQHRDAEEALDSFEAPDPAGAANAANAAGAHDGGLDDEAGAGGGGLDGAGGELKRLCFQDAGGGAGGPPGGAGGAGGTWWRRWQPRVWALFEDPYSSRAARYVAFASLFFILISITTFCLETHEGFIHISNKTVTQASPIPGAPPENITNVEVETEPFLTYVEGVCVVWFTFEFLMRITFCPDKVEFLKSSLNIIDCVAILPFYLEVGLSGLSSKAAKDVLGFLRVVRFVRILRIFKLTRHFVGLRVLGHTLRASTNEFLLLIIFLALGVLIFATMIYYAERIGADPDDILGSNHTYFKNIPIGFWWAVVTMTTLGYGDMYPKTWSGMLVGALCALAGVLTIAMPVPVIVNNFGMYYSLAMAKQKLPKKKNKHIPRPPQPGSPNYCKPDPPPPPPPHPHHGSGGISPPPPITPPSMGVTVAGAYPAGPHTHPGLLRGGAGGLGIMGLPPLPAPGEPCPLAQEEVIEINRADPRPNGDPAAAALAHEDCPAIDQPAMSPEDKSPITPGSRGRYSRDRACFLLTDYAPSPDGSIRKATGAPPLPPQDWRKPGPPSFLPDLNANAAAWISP
Protocol: as §1, §2, §3, §4, §5

T2 sequence (P16389 whole entry): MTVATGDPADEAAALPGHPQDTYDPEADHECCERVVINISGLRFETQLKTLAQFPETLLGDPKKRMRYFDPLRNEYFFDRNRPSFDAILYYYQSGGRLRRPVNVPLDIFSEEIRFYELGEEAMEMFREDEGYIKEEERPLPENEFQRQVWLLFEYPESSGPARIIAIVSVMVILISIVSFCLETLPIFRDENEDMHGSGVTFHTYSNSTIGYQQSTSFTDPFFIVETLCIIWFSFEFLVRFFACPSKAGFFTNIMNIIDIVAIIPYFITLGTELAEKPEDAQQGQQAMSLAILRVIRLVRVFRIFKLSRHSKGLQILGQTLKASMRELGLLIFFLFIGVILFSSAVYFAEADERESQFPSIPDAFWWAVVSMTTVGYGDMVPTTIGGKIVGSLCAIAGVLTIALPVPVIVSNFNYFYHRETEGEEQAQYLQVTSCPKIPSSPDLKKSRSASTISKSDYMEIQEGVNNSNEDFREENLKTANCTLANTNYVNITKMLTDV
T1 sequence (Q12791 whole entry): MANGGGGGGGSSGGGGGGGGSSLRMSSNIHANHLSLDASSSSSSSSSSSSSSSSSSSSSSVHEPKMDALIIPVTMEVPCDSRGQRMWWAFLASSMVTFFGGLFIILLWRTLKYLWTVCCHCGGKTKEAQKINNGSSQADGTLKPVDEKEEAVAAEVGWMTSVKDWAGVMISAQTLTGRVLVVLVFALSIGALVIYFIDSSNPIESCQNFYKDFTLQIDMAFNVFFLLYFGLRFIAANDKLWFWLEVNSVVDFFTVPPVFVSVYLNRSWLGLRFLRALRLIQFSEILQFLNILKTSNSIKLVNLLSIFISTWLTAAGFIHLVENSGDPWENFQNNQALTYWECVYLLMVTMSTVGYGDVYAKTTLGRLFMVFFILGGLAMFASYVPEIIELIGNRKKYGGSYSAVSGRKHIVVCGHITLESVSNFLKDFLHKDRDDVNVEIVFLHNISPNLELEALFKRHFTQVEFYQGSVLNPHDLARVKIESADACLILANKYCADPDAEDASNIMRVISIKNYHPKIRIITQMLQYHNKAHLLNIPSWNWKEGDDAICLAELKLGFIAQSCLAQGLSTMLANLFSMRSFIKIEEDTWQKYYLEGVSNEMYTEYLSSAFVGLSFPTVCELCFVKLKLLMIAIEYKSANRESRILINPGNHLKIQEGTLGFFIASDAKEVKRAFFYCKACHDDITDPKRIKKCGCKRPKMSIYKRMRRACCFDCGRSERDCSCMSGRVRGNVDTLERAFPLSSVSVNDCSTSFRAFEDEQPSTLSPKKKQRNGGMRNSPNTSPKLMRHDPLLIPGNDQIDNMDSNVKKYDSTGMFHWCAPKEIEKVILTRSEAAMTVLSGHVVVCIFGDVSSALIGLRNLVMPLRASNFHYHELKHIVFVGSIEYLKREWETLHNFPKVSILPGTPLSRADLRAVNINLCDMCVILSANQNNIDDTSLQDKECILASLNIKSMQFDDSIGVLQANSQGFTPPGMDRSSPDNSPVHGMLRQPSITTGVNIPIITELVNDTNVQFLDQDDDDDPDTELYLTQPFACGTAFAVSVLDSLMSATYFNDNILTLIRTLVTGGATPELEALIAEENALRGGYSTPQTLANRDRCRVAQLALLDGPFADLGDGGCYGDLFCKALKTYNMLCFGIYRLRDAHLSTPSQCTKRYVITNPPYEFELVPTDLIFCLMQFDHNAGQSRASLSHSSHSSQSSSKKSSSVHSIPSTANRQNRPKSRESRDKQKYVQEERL

C=CC(=O)Nc1ccc(/N=N/c2ccc(NC(=O)C[N+](CC)(CC)CC)cc2)cc1 [AAQ]
current regulated by light (BKα channels): ~45%
light-sensitivity imparted on channel (Kv1.2): imparted light-sensitivity
light-sensitivity imparted on channel (Kv2.1): imparted light-sensitivity
light-sensitivity imparted on channel (Kv3.1): imparted light-sensitivity
light-sensitivity imparted on channel (Kv3.3): imparted light-sensitivity
